Assay results as given in patent publication US20250171462A1 (NICO Therapeutics, Inc., priority 2022, published 2025).
pIC50: −log10 of the molar value. Like-named read-outs stand apart in the source and are kept apart here.

Molecular target: T1, full-length SARM1 (FL-SARM1) (Homo sapiens, UniProt Q6SZW1)
T1 sequence (Q6SZW1 28-724): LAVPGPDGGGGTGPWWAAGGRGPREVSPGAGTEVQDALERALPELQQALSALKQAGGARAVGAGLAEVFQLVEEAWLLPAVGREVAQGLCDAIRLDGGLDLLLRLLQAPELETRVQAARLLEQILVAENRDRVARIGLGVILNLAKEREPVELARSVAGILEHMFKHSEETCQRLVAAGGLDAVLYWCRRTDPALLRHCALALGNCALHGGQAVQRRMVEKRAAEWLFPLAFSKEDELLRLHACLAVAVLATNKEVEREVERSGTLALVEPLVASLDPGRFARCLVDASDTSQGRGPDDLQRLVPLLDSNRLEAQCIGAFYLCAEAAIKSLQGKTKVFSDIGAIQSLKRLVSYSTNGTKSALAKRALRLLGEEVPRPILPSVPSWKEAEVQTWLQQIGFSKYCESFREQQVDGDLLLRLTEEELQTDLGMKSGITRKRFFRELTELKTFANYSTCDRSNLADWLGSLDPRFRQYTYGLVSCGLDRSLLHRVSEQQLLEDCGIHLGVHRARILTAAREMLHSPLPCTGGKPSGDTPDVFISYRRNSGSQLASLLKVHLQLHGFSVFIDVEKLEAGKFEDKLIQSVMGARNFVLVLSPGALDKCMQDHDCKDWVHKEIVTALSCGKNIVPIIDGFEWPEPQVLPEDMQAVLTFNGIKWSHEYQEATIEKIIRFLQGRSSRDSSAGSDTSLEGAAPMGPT
Assay: FL-SARM1 cellular lysate assay (NAD/NADH-Glo detection of remaining NAD+, NMN-activated)
Conditions: for IC50: Activity (μM) (IC50)

[1] = Activity (IC50 class), 11 point curve

Protocol: Preparation of full-length SARM1 (FL-SARM1) lysate: HEK293T cells (ATCC: CRL-3216) were grown on 150 mm TC-treated dishes to 80-90% confluency in complete DMEM (DMEM (Thermo Fisher: 11965175) supplemented with 10% HI—FBS (VWR: 10802-772), 1× Pen/Strep (Thermo Fisher: 15140122), 1×NEAA (Thermo Fisher: 1140050), 1× glutamax (Thermo Fisher: 35050061), and 1 mM sodium pyruvate (Thermo Fisher: 11360070)) at 37° C. and 5% CO2. One hour prior to transfection, the media was replaced with fresh, 37° C. complete DMEM (20 mL per one 150 mm dish) supplemented with additional 10 mM glucose (Alfa Aesar AAJ60067EQE). Per one 150 mm dish, 30 μg FL-SARM1 (SEQ. ID. 1; cloned in-house) plasmid was dissolved in 1 mL DMEM at ambient temperature and were mixed by inverting the tube 8-10 times. 90 μL of GenJet™ in vitro DNA transfection reagent (Ver2) was dissolved in 1 mL DMEM at ambient temperature and were mixed by inverting the tube 8-10 times. The plasmid and transfection agent solutions were combined, mixed by 8-10 inversions and incubated for 10 minutes at ambient temperature. 2 mL of this transfection mixture was added to each dish containing HEK293T cells as prepared above followed by a gentle mixing of 4-5 horizontal rotations. The dishes were incubated at 37° C. and 5% CO2 for 24 h. The dishes were removed from the incubator, the medium was aspirated and the cells were scraped off using cell scrapers in ice-cold 1×PBS (5 mL/dish, Thermo Fisher Scientific 10010023). The collected cells were centrifuged at 300 g for 5 minutes at 4° C. The supernatant was aspirated and the pellet was frozen at −80° C. until needed. The cell pellet from 30 dishes was dissolved in 30 mL 1×PBS supplemented with 4 tablets of Complete, Mini EDTA-free protease inhibitor cocktail at 4° C. This mixture was sonicated on ice for 10 minutes at 50% amplitude with a 1 second on/1 second off interval using a Model 120 sonicator (Thermo Fisher Scientific, FB120110). The lysate was centrifuged at 16000 g for 10 minutes at 4° C.
To a white 384-well Proxiplate (PerkinElmer, PE-6008280) was added 50 nL/well of a DMSO solution containing test compounds followed by 7.5 μL/well of a 0.067 mg/mL solution of SARMi cellular lysate in reaction buffer (DPBS containing CHAPSO (0.1%) and fatty acid free BSA (0.032%)). The plate was centrifuged for 1 minute at 1000 RPM and then placed in an incubator at 23° C. for 15 minutes. To the wells were added 2.5 μL/well of a solution containing 40 M NAD^+ and 4 mM nicotinamide mononucleotide (NMN) in reaction buffer. The plate was centrifuged for 1 min at 1000 RPM, the plate was sealed and placed in an incubator at 23° C. for 3.5 hours before adding 3.5 μL/well of NAD/NADH-Glo™ solution (preparation as described by Promega using the extended detection protocol). The plate was centrifuged for 1 minute at 1000 RPM and then incubated at 23° C. for 20 minutes. 1 μL/well of a 3.625 mM solution of menadione in DMSO was added and the plate was centrifuged for 1 minute at 1000 RPM. Relative light units (RLU) were recorded using an Envision plate reader at a height of 6.5 mm.
IC50 values were calculated from an 11 point curve using ½ log dilutions using a four-parameter logistic regression curve fit.

SMILES	pIC50 [1]	IC50 (11 point curve) [µM]	pIC50 (read-out: Activity (IC50 class), 11 point curve)
Cc1ccc(NC(=O)CN2C(=O)CCOc3ccccc32)cc1-c1ccccn1 [Example 134, N-(4-methyl-3-pyridin-2-ylphenyl)-2-(4-oxo-2,3-dihydro-1,5-benzoxazepin-5-yl)acetamide]	5.00 to 6.00	1.9	–
Cc1ccc(NC(=O)[C@H]2C[C@@H](OC(F)(F)F)C2)cc1-c1ccccn1 [Example 136, cis-N-(4-methyl-3-pyridin-2-ylphenyl)-3-(trifluoromethoxy)cyclobutane-1-carboxamide]	5.00 to 6.00	6.4	–
Cc1ccc(NC(=O)C(C)(C)C)cc1-c1ccccn1 [Example 141, 2,2-dimethyl-N-(4-methyl-3-pyridin-2-ylphenyl)propanamide]	< 5.00	19	–
Cc1ccc(NC(=O)[C@@H]2CC2(F)F)cc1-c1ccccn1 [Example 142, (1S)-2,2-difluoro-N-(4-methyl-3-pyridin-2-ylphenyl)cyclopropane-1-carboxamide]	5.00 to 6.00	2.6	–
Cc1ccc(NC(=O)CN2C(=O)COCc3ccccc32)cc1-c1ccccn1 [Example 144, N-(4-methyl-3-pyridin-2-ylphenyl)-2-(2-oxo-5H-4,1-benzoxazepin-1-yl)acetamide]	5.00 to 6.00	9.7	–
N#CCc1ccc(NC(=O)[C@@H]2CC2(F)F)cc1-c1ccccn1 [Example 145, (1S)-N-[4-(cyanomethyl)-3-pyridin-2-ylphenyl]-2,2-difluorocyclopropane-1-carboxamide]	5.00 to 6.00	5	–
CCc1ccc(-c2cc(NC(=O)[C@@H]3CC3(F)F)ccc2C)nc1 [Example 146, (1S)-N-[3-(5-ethylpyridin-2-yl)-4-methylphenyl]-2,2-difluorocyclopropane-1-carboxamide]	5.00 to 6.00	7.3	–
Cc1ccc(NC(=O)C2CC3CCC2C3)cc1-c1ccccn1 (stereo not drawn) [Example 147, N-(4-methyl-3-pyridin-2-ylphenyl)bicyclo[2.2.1]heptane-2-carboxamide]	–	0.2	6.00 to 10.00
O=C(Nc1ccc(-c2ccccc2)c(-c2ccccn2)c1)[C@@H]1CC1(F)F [Example 148, (1S)-2,2-difluoro-N-(4-phenyl-3-pyridin-2-ylphenyl)cyclopropane-1-carboxamide]	< 5.00	38	–
Cc1ccc(NC(=O)[C@@H]2CC2(F)F)cc1-c1ccc(C2CC2)cn1 [Example 149, (1S)-N-[3-(5-cyclopropylpyridin-2-yl)-4-methylphenyl]-2,2-difluorocyclopropane-1-carboxamide]	< 5.00	17	–
O=C(Nc1ccc(C(F)(F)F)c(-c2ccccn2)c1)[C@@H]1CC1(F)F [Example 150, (1S)-2,2-difluoro-N-[3-pyridin-2-yl-4-(trifluoromethyl)phenyl] cyclopropane-1-carboxamide]	5.00 to 6.00	3.7	–
CC(C)c1ccc(NC(=O)[C@@H]2CC2(F)F)cc1-c1ccccn1 [Example 151, (1S)-2,2-difluoro-N-(4-propan-2-yl-3-pyridin-2-ylphenyl)cyclopropane-1-carboxamide]	5.00 to 6.00	4.2	–
COc1ccc(-c2cc(NC(=O)[C@@H]3CC3(F)F)ccc2C)nc1 [Example 152, (1S)-2,2-difluoro-N-[3-(5-methoxypyridin-2-yl)-4-methylphenyl]cyclopropane-1-carboxamide]	5.00 to 6.00	3.6	–
COc1cccc(-c2cc(NC(=O)[C@@H]3CC3(F)F)ccc2C)n1 [Example 153, (1S)-2,2-difluoro-N-[3-(6-methoxypyridin-2-yl)-4-methylphenyl]cyclopropane-1-carboxamide]	< 5.00	18	–
Cc1ccc(NC(=O)[C@@H]2CC2(F)F)cc1-c1ccc(C(F)(F)F)cn1 [Example 154, (1S)-2,2-difluoro-N-[4-methyl-3-[5-(trifluoromethyl)pyridin-2-yl]phenyl]cyclopropane-1-carboxamide]	5.00 to 6.00	9.9	–
O=C(Nc1ccc(C2CC2)c(-c2ccc(F)cn2)c1)[C@@H]1CC1(F)F [Example 155, (1S)-N-[4-cyclopropyl-3-(5-fluoropyridin-2-yl)phenyl]-2,2-difluorocyclopropane-1-carboxamide]	5.00 to 6.00	3.5	–
Cc1ccc(NC(=O)[C@@H]2CC2(F)F)cc1-c1ncccc1C [Example 156, (1S)-2,2-difluoro-N-[4-methyl-3-(3-methylpyridin-2-yl)phenyl]cyclopropane-1-carboxamide]	5.00 to 6.00	2.5	–

SMILES	pIC50 [1]	IC50 (11 point curve) [µM]	pIC50 (read-out: Activity (IC50 class), 11 point curve)
Cc1ccc(NC(=O)[C@@H]2CC2(F)F)cc1-c1cc(C#N)ccn1 [Example 157, (1S)-N-[3-(4-cyanopyridin-2-yl)-4-methylphenyl]-2,2-difluorocyclopropane-1-carboxamide]	< 5.00	38	–
Cc1ccc(NC(=O)[C@@H]2CC2(F)F)cc1-c1ccc(C#N)cn1 [Example 158, (1S)-N-[3-(5-cyanopyridin-2-yl)-4-methylphenyl]-2,2-difluorocyclopropane-1-carboxamide]	< 5.00	37	–
Cc1ccc(NC(=O)[C@@H]2CC2(F)F)cc1-c1cccc(C#N)n1 [Example 159, (1S)-N-[3-(6-cyanopyridin-2-yl)-4-methylphenyl]-2,2-difluorocyclopropane-1-carboxamide]	5.00 to 6.00	9.8	–
Cc1ccc(NC(=O)[C@@H]2CC2(F)F)cc1-c1ccc(Cl)cn1 [Example 160, (1S)-N-[3-(5-chloropyridin-2-yl)-4-methylphenyl]-2,2-difluorocyclopropane-1-carboxamide]	5.00 to 6.00	2.5	–
Cc1ccnc(-c2cc(NC(=O)[C@@H]3CC3(F)F)ccc2C)c1 [Example 161, (1S)-2,2-difluoro-N-[4-methyl-3-(4-methylpyridin-2-yl)phenyl]cyclopropane-1-carboxamide]	5.00 to 6.00	3.5	–
Cc1ccc(-c2cc(NC(=O)[C@@H]3CC3(F)F)ccc2C)nc1 [Example 162, (1S)-2,2-difluoro-N-[4-methyl-3-(5-methylpyridin-2-yl)phenyl]cyclopropane-1-carboxamide]	5.00 to 6.00	2.5	–
Cc1cccc(-c2cc(NC(=O)[C@@H]3CC3(F)F)ccc2C)n1 [Example 163, (1S)-2,2-difluoro-N-[4-methyl-3-(6-methylpyridin-2-yl)phenyl]cyclopropane-1-carboxamide]	< 5.00	26	–
Cc1ccc(NC(=O)CC2CCC2)cc1-c1ccc(F)cn1 [Example 164, 2-cyclobutyl-N-[3-(5-fluoropyridin-2-yl)-4-methylphenyl]acetamide]	5.00 to 6.00	1.4	–
Cc1ccc(NC(=O)CC2CCC2)cc1-c1ncccc1F [Example 165, 2-cyclobutyl-N-[3-(3-fluoropyridin-2-yl)-4-methylphenyl]acetamide]	5.00 to 6.00	5.3	–
Cc1ccc(NC(=O)CC2CCC2)cc1-c1cnccn1 [Example 166, 2-cyclobutyl-N-(4-methyl-3-pyrazin-2-ylphenyl)acetamide]	< 5.00	19	–
Cc1ccc(NC(=O)CC2CCC2)cc1-c1cccnn1 [Example 167, 2-cyclobutyl-N-(4-methyl-3-pyridazin-3-ylphenyl)acetamide]	< 5.00	11	–
Cc1ccc(NC(=O)CC2CCC2)cc1-c1ccccn1 [Example 168, 2-cyclobutyl-N-(4-methyl-3-pyridin-2-ylphenyl)acetamide]	5.00 to 6.00	1.3	–
Cc1ccc(NC(=O)[C@H]2C[C@H]3C[C@H]3N2)cc1-c1ncc(F)cn1 [Example 170, (1R,3R,5R)—N-(3-(5-fluoropyrimidin-2-yl)-4-methylphenyl)-2-azabicyclo[3.1.0]hexane-3-carboxamide]	5.00 to 6.00	2.7	–
Cc1nnc(CN2[C@@H](C(=O)Nc3ccc(C)c(-c4ncc(F)cn4)c3)C[C@H]3C[C@H]32)o1 [Example 171, (1R,3R,5R)—N-(3-(5-fluoropyrimidin-2-yl)-4-methylphenyl)-2-((5-methyl-1,3,4-oxadiazol-2-yl)methyl)-2-azabicyclo[3.1.0]hexane-3-carboxamide]	< 5.00	18	–
CSc1ncc(N2[C@@H](C(=O)Nc3ccc(C)c(-c4ncc(F)cn4)c3)C[C@H]3C[C@H]32)nn1 [Example 172, (1R,3R,5R)—N-(3-(5-fluoropyrimidin-2-yl)-4-methylphenyl)-2-(3-(methylthio)-1,2,4-triazin-6-yl)-2-azabicyclo[3.1.0]hexane-3-carboxamide]	5.00 to 6.00	6.2	–
Cc1ccc(NC(=O)[C@H]2C[C@H]3C[C@H]3N2c2cncnn2)cc1-c1ncc(F)cn1 [Example 173, (1R,3R,5R)—N-(3-(5-fluoropyrimidin-2-yl)-4-methylphenyl)-2-(1,2,4-triazin-6-yl)-2-azabicyclo[3.1.0]hexane-3-carboxamide]	5.00 to 6.00	4.2	–
